pIC50, pKi: −log10 of the molar value. Where two headings read alike, the source gives them in different places. Bridge positions count the residues as written; N and C are the ends. Square brackets hold non-standard residues; d marks the D form. Peptide text beside a SMILES is read from it. Hyp = O=C(O)[C@@H]1C[C@@H](O)CN1
Target: T1, bovine trypsin (Bos taurus, UniProt P00760)
T1 sequence (P00760 24-246): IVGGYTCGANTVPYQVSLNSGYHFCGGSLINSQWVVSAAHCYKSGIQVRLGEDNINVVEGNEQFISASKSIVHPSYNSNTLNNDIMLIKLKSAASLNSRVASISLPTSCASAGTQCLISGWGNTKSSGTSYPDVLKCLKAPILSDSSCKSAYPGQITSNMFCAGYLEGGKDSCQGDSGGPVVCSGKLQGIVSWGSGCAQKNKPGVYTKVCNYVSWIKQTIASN
Assay: Trypsin inhibitory activity of peptides (BApNA hydrolysis, OD405; IC50, Ki, residual activity)
Type: biochemical
Conditions: for pKi: Ki=IC50/(1+S/Km), Km 0.33 mM, read-out: Ki; for pIC50: trypsin 50 nM, BApNA 1.22 mM, read-out: IC50
Procedure, shortened: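 Trypsin (50 nM final) preincubated with peptides at 37 °C in 50 mM Tris-HCl pH 7.8, 20 mM CaCl2; BApNA added (1.22 mM final), 260 min at 37 °C, then OD405 read. Residual activity from enzyme-only and substrate-only controls; IC50 fitted and converted to Ki via Ki=IC50/(1+S/Km), Km measured separately for BApNA.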

inhibitory activity against trypsin (in words)	pKi	pIC50	Compound	other results
excellent trypsin inhibitory activities	7.22		CC[C@H](C)[C@@H]1NC(=O)[C@@H]2CCCN2C(=O)[C@@H]2CCCN2C(=O)[C@H]([C@@H](C)CC)NC(=O)[C@H](CO)NC(=O)[C@H](CCCCN)NC(=O)[C@H]([C@@H](C)O)NC(=O)[C@H](CC(N)=O)NC(=O)[C@H](CCCNC(=N)N)NC(=O)CNC(=O)[C@@H](N)CSSC[C@@H](C(=O)N[C@@H](Cc2ccccc2)C(=O)O)NC1=O [BT55] (H-CGRNTKSIPPICF-OH; disulfide 1-12; C-terminus assumed)	
	7.70	6.96	CC[C@H](C)[C@@H]1NC(=O)[C@@H]2CCCN2C(=O)[C@@H]2CCCN2C(=O)[C@H]([C@@H](C)CC)NC(=O)[C@H](CO)NC(=O)[C@H](CCCCN)NC(=O)[C@H]([C@@H](C)O)NC(=O)[C@H](Cc2c[nH]cn2)NC(=O)[C@H](CCCNC(=N)N)NC(=O)CNC(=O)[C@@H](N)CSSC[C@@H](C(=O)N[C@@H](Cc2ccccc2)C(=O)O)NC1=O [BT56] (H-CGRHTKSIPPICF-OH; disulfide 1-12; N-terminus and C-terminus assumed)	
excellent trypsin inhibitory activities	7.52	6.89	CC[C@H](C)[C@@H]1NC(=O)[C@@H]2CCCN2C(=O)[C@@H]2CCCN2C(=O)[C@H]([C@@H](C)CC)NC(=O)[C@H](CO)NC(=O)[C@H](CCCCN)NC(=O)[C@H]([C@@H](C)O)NC(=O)[C@H](Cc2c[nH]c3ccccc23)NC(=O)[C@H](CCCNC(=N)N)NC(=O)CNC(=O)[C@@H](N)CSSC[C@@H](C(=O)N[C@@H](Cc2ccccc2)C(=O)O)NC1=O [BT57] (H-CGRWTKSIPPICF-OH; disulfide 1-12; C-terminus assumed)	
	7.52	6.92	CC[C@H](C)[C@@H]1NC(=O)[C@@H]2CCCN2C(=O)[C@@H]2CCCN2C(=O)[C@H]([C@@H](C)CC)NC(=O)[C@H](CO)NC(=O)[C@H](CCCCN)NC(=O)[C@H]([C@@H](C)O)NC(=O)[C@H](CCC(=O)O)NC(=O)[C@H](CCCNC(=N)N)NC(=O)CNC(=O)[C@@H](N)CSSC[C@@H](C(=O)N[C@@H](Cc2ccccc2)C(=O)O)NC1=O [BT58] (H-CGRETKSIPPICF-OH; disulfide 1-12; N-terminus and C-terminus assumed)	
excellent trypsin inhibitory activities	7.05		CC[C@H](C)[C@@H]1NC(=O)[C@@H]2CCCN2C(=O)[C@@H]2CCCN2C(=O)[C@H]([C@@H](C)CC)NC(=O)[C@H](CO)NC(=O)[C@H](CCCCN)NC(=O)[C@H]([C@@H](C)O)NC(=O)CNC(=O)[C@H](CCCNC(=N)N)NC(=O)CNC(=O)[C@@H](N)CSSC[C@@H](C(=O)N[C@@H](Cc2ccccc2)C(=O)O)NC1=O [BT60] (H-CGRGTKSIPPICF-OH; disulfide 1-12)	
	6.72		CC[C@H](C)[C@@H]1NC(=O)[C@H](CO)NC(=O)[C@H](CCCNC(=N)N)NC(=O)[C@H]([C@@H](C)O)NC(=O)[C@@H](NC(=O)[C@@H](N)CCCNC(=N)N)CSSC[C@@H](C(=O)N[C@@H](Cc2c[nH]c3ccccc23)C(=O)O)NC(=O)[C@H](Cc2c[nH]cn2)NC(=O)[C@@H]2CCCN2C(=O)[C@@H]2CCCN2C1=O [BT61] (H-RCTRSIPPHCW-OH; disulfide 2-10; N-terminus and C-terminus assumed)	
	8.00	7.15	CC[C@H](C)[C@@H]1NC(=O)[C@H](CO)NC(=O)[C@H](CCCCN)NC(=O)[C@H]([C@@H](C)O)NC(=O)[C@@H](NC(=O)[C@@H](N)CCCNC(=N)N)CSSC[C@@H](C(=O)N[C@@H](Cc2ccccc2)C(=O)O)NC(=O)[C@H](Cc2c[nH]cn2)NC(=O)[C@@H]2CCCN2C(=O)[C@@H]2CCCN2C1=O [BT62] (H-RCTKSIPPHCF-OH; disulfide 2-10; N-terminus and C-terminus assumed)	
	7.70	7.05	CC[C@H](C)[C@@H]1NC(=O)[C@H](CO)NC(=O)[C@H](CCCCN)NC(=O)[C@H]([C@@H](C)O)NC(=O)[C@@H](NC(=O)[C@@H](N)CCCNC(=N)N)CSSC[C@@H](C(=O)N[C@@H](Cc2c[nH]cn2)C(=O)O)NC(=O)[C@H](CCC(N)=O)NC(=O)[C@@H]2CCCN2C(=O)[C@@H]2CCCN2C1=O [BT63] (H-RCTKSIPPQCH-OH; disulfide 2-10; N-terminus and C-terminus assumed)	
excellent trypsin inhibitory activities	6.89		CC(C)C[C@@H]1NC(=O)[C@H](CO)NC(=O)[C@H](CCCCN)NC(=O)[C@H]([C@@H](C)O)NC(=O)[C@@H](NC(=O)[C@@H](N)CCCNC(=N)N)CSSC[C@@H](C(=O)N[C@@H](CO)C(=O)O)NC(=O)[C@H](CCC(N)=O)NC(=O)[C@@H]2CCCN2C(=O)[C@@H]2CCCN2C1=O [BT65] (H-RCTKSLPPQCS-OH; disulfide 2-10; C-terminus assumed)	
higher trypsin inhibitory activities	8.00	7.22	CC[C@H](C)[C@@H]1NC(=O)[C@@H]2CCCN2C(=O)[C@@H]2CCCN2C(=O)[C@H]([C@@H](C)CC)NC(=O)[C@H](CO)NC(=O)[C@H](CCCCN)NC(=O)[C@H]([C@@H](C)O)NC(=O)[C@H](C)NC(=O)[C@H](CCCNC(=N)N)NC(=O)[C@@H]2CCCN2C(=O)[C@@H](N)CSSC[C@@H](C(=O)N[C@@H](Cc2ccccc2)C(=O)O)NC1=O [BT66] (H-CPRATKSIPPICF-OH; disulfide 1-12; C-terminus assumed)	inhibitory activity against trypsin (in words) (listed as SEQ ID NO: 66): excellent trypsin inhibitory activities; Residual trypsin activity (peptide 0.000098 μM): 107.0 ± 6.2%; Residual trypsin activity (peptide 0.00098 μM): 104.7 ± 2.1%; Residual trypsin activity (peptide 0.0098 μM): 106.2 ± 3.4%; Residual trypsin activity (peptide 0.0488 μM): 66.8 ± 8.2%; Residual trypsin activity (peptide 0.0585 μM): 55.7 ± 2.4%; Residual trypsin activity (peptide 0.0780 μM): 13.9 ± 4.2%; Residual trypsin activity (peptide 0.098 μM): 4.8 ± 0.7%; Residual trypsin activity (peptide 0.98 μM): 0.1 ± 0.0%; Residual trypsin activity (peptide 9.76 μM): 0.1 ± 0.0%
higher trypsin inhibitory activities	8.00	7.30	CC[C@H](C)[C@@H]1NC(=O)[C@@H]2CCCN2C(=O)[C@@H]2CCCN2C(=O)[C@H]([C@@H](C)CC)NC(=O)[C@H](CO)NC(=O)[C@H](CCCCN)NC(=O)[C@H]([C@@H](C)O)NC(=O)[C@H](C)NC(=O)[C@H](CCCNC(=N)N)NC(=O)[C@H](C)NC(=O)[C@@H](N)CSSC[C@@H](C(=O)N[C@@H](Cc2ccccc2)C(=O)O)NC1=O [BT67] (H-CARATKSIPPICF-OH; disulfide 1-12)	inhibitory activity against trypsin (in words) (listed as SEQ ID NO: 67): excellent trypsin inhibitory activities; Residual trypsin activity (peptide 0.000098 μM): 107.0 ± 5.5%; Residual trypsin activity (peptide 0.00098 μM): 104.4 ± 3.9%; Residual trypsin activity (peptide 0.0098 μM): 102.0 ± 2.4%; Residual trypsin activity (peptide 0.0488 μM): 49.6 ± 2.8%; Residual trypsin activity (peptide 0.0585 μM): 39.9 ± 1.7%; Residual trypsin activity (peptide 0.07317 μM): 8.1 ± 2.5%; Residual trypsin activity (peptide 0.098 μM): 1.5 ± 0.3%; Residual trypsin activity (peptide 0.98 μM): 0.1 ± 0.2%; Residual trypsin activity (peptide 9.76 μM): 0.1 ± 0.1%
excellent trypsin inhibitory activities	8.00	7.22	CC[C@H](C)[C@@H]1NC(=O)[C@@H]2CCCN2C(=O)[C@@H]2C[C@@H](O)CN2C(=O)[C@H]([C@@H](C)CC)NC(=O)[C@H](CO)NC(=O)[C@H](CCCCN)NC(=O)[C@H]([C@@H](C)O)NC(=O)[C@H](C)NC(=O)[C@H](CCCNC(=N)N)NC(=O)[C@H](C)NC(=O)[C@@H](N)CSSC[C@@H](C(=O)N[C@@H](Cc2ccccc2)C(=O)O)NC1=O [BT69] (H-CARATKSI[Hyp]PICF-OH; disulfide 1-12; C-terminus assumed)	
excellent trypsin inhibitory activities	7.52		CC[C@H](C)[C@@H]1NC(=O)[C@@H]2C[C@@H](O)CN2C(=O)[C@@H]2CCCN2C(=O)[C@H]([C@@H](C)CC)NC(=O)[C@H](CO)NC(=O)[C@H](CCCCN)NC(=O)[C@H]([C@@H](C)O)NC(=O)[C@H](C)NC(=O)[C@H](CCCNC(=N)N)NC(=O)[C@H](C)NC(=O)[C@@H](N)CSSC[C@@H](C(=O)N[C@@H](Cc2ccccc2)C(=O)O)NC1=O [BT70] (H-CARATKSIP[Hyp]ICF-OH; disulfide 1-12; C-terminus assumed)	

Compound	inhibitory activity against trypsin (in words)	pKi	pIC50	other results
CC[C@H](C)[C@@H]1NC(=O)[C@@H]2CCCN2C(=O)[C@@H]2CCCN2C(=O)[C@H]([C@@H](C)CC)NC(=O)[C@H](CO)NC(=O)[C@H](CCCCN)NC(=O)[C@H]([C@@H](C)O)NC(=O)[C@H](CCC(N)=O)NC(=O)[C@H](CCCNC(=N)N)NC(=O)CNC(=O)[C@@H](N)CSSC[C@@H](C(=O)N[C@@H](Cc2ccccc2)C(=O)O)NC1=O [BT54] (H-CGRQTKSIPPICF-OH; disulfide 1-12; C-terminus assumed)	good inhibitory activities against trypsin	8.00	7.22	inhibitory activity against trypsin (in words) (listed as SEQ ID NO: 54): excellent trypsin inhibitory activities; Residual trypsin activity (peptide 0.000098 μM): 101.0 ± 3.9%; Residual trypsin activity (peptide 0.00098 μM): 99.2 ± 1.7%; Residual trypsin activity (peptide 0.0098 μM): 99.9 ± 4.1%; Residual trypsin activity (peptide 0.0488 μM): 65.8 ± 6.7%; Residual trypsin activity (peptide 0.0585 μM): 58.4 ± 4.3%; Residual trypsin activity (peptide 0.0780 μM): 24.3 ± 2.4%; Residual trypsin activity (peptide 0.098 μM): 7.2 ± 2.4%; Residual trypsin activity (peptide 0.98 μM): 0.1 ± 0.0%; Residual trypsin activity (peptide 9.76 μM): −0.1 ± 0.0%

Reference: patent publication US20230416329A1, “A PEPTIDE WITH DISULFIDE BONDS AND INHIBITORY ACTIVITY AGAINST SERINE PROTEASES, DERIVED HYBRID PEPTIDES THEREOF, AND USES THEREOF” (INSTITUTE OF MATERIA MEDICA , CHINESE ACADEMY OF MEDICAL …, priority 2020, published 2023)
